# From patent publication US20200247808A1, “Heterocyclic Tec-Family Kinase Inhibitors” (GB005, Inc., priority 2015, published 2020)
# Where two headings read alike, the source gives them in different places.
# What was measured:
# [1] = target: T1, human BTK (Homo sapiens, UniProt Q06187); assay: BTK kinase inhibition, KinaseProfiler radiometric protein kinase assay (Eurofins); format: biochemical
# T1 construct: purchased Eurofins Pharma Discovery Services UK Limited (contract assay, KinaseProfiler)
# Experimental: In vitro potency of selected compound was defined against human BTK, EGFR, and ErbB2 kinases using Kinase Profiler radiometric protein kinase assays performed at Eurofins Pharma Discovery Services UK Limited.
# Each kinase is diluted in buffer and all compounds were prepared to 50x final assay concentration in 100% DMSO. This working stock of the compound was added to the assay well as the first component in the reaction, followed by the remaining components as detailed in the assay protocol listed above. The reaction was initiated by the addition of the MgATP mix. […] (specific activity approx. 500 cpm/pmol, concentration as required) and variable test article concentrations. […] The reaction was stopped by the addition of 3% phosphoric acid solution. 10 μL of the reaction is then spotted onto a P30 filtermat and washed three times for 5 minutes in 75 mM phosphoric acid and once in methanol prior to drying and scintillation counting. In addition positive control wells contain all components of the reaction, except the compound of interest; however, DMSO (at a final concentration of 2%) were included in these wells to control for solvent effects as well as blank wells contain all components of the reaction, with a reference inhibitor replacing the compound of interest. This abolishes kinase activity and establishes the base-line (0% kinase activity remaining). The potency of each compound was reported by estimating the EC50.
# [2] = system: splenocytes; assay: Splenic cell proliferation assay (anti-IgM stimulated, Cell Titer-Glo); format: cell-based, mouse (CD1); details: Splenocyte; mouse splenocytes, 2.5 μg/ml anti-IgM F(ab')2, 72 h; read-out: Spleen cell EC50
# Experimental: Proliferation of splenocytes in response to anti-IgM can be blocked by inhibition of BTK. Splenocytes were obtained from 6 week old male CD1 mice (Charles River Laboratories Inc.). Mouse spleens were manually disrupted in PBS and filtered using a 70um cell strainer followed by ammonium chloride red blood cell lysis. Cells were washed, resuspended in Splenocyte Medium (HyClone RPMI supplemented with 10% heat-inactivated FBS, 0.5X non-essential amino acids, 10 mM HEPES, 50 μM beta mercaptoethanol) and incubated at 37° C., 5% CO2 for 2h to remove adherent cells. Suspension cells were seeded in 96 well plates at 50,000 cells per well and incubated at 37° C., 5% CO2 for 1h. Splenocytes were pre-treated in triplicate with 10,000 nM curves of Formula 1 compounds for 1h, followed by stimulation of cell proliferation with 2.5 μg/ml anti-IgM
# F(ab′)2 (Jackson ImmunoResearch) for 72 h. Cell proliferation was measured by Cell Titer-Glo Luminescent Assay (Promega). EC50 values (50% proliferation in the presence of compound as compared to vehicle treated controls) were calculated from dose response compound curves using GraphPad Prism Software.
# [3] = system: TMD-8 human activated B cell diffuse large B cell lymphoma cells; assay: TMD-8 survival assay (Cell Titer-Glo); format: cell-based; details: TMD8, TMD-8 cells, 72 h
# Experimental: TMD-8 human activated B cell diffuse large B cell lymphoma cells were seeded in 96-well plates at a density of 20,000 cells/well in HyClone RPMI supplemented with 10% FBS (Fisher)/1% Penicillin/Streptomycin (HyClone) and incubated at 37° C., 5% CO2. Cells were treated in triplicate with 1,000 nM or 100 nM curves of compounds for 72h. Cell survival was measured by Cell Titer-Glo Luminescent Assay (Promega). EC50 values (50% proliferation in the presence of compound as compared to vehicle treated controls) were calculated from dose response compound curves using GraphPad Prism Software.
# [4] = Formation of glutathione adducts (GSH reactivity, HPLC-UV); format: in vitro ADME; details: 10 mM GSH, 20 micromolar test article, pH 7.4, 37° C.
# Experimental: Generation of non-specific thiol adducts can be measured by assaying reactivity of compounds with GSH. Formation of GSH adducts was measured by incubating GSH (10 mM) in 100 mM Phosphate Buffer pH 7.4 with test article at 20 micromolar final concentration. Briefly, 600 microliters of phosphate buffer pH 7.4 was added in a glass vial with 200 microliters of 100 micromolar test article in DMSO. Samples were warmed at 37° C. for 10 minutes and the reaction was initiated by the addition of 200 microliters of 50 mM reduced GSH in phosphate buffer pH 7.4 and incubated at 37° C. At various time points (0.5 min, 5 min, 15 min, 30 min, 60 min, 120 min and 180 min) 50 microliter aliquots were placed into an injection vial equipped with an insert and mixed with 50 microliters of 1% formic acid in 99% Methanol. Vials were loaded onto the HPLC injection tray and each sample was injected onto a C18 column (ACE 3 C18, 4.6×50 mm column) and both the parent and product were monitored by UV absorbance at 254 nm on an Agilent Technologies 1100 series HPLC. Peaks were integrated and the percentage of product present calculated as the percent of the total peak area on the parent and product at 60 minutes.
# [5] = Mouse plasma pharmacokinetics; format: in vivo, mouse (CD-1); details: male, CD-1, mouse, mice
# Experimental: Plasma pharmacokinetic studies were conducted in CD1 mice to compare the plasma exposure following oral and intravenous administration of the free-base form of each compound to mice and to calculate bioavailability. Male CD-1 mice (25-30 g on delivery; Charles River) were used for mouse PK studies. The mice were housed 3 per cage in a room under controlled conditions of temperature ([…]) and humidity (40-70%), with a 12 h dark/light cycle. The animals were acclimated for a minimum of 3 days prior to use and received standard rodent chow (Charles River) and municipal tap water ad libitum. Nine animals were used per study, they were dosed PO or IV and bled from the mandibular vein, 2 to 3 times per animal at the following time points; pre dose, 15 and 30 min, 1, 2, 3, 5, 7 and 24 h (0.1 mL whole blood /time point; composite PK). Blood was collected into microvette K3E tubes ([…]) at RT and then centrifuged at 5,000 RPM for 2 min at 4° C. in order to separate plasma. Isolated plasma (0.015 mL/time point) was pipetted into 96 well plates (Canadian Life Science) which were stored at minus 20° C. until analysis (2 duplicate plates per study).
# Concentrations of compound in rodent plasma samples were determined by LC-MS-MS. Two standard curves containing 8 points each were prepared by spiking in methanol or plasma with a solution containing the test article at a defined concentration. The range of final compound concentration in the standard curve was 0 to 1 μg/mL. Three sets of quality control (QC) samples in plasma at low, medium and high concentration within the standard curve range were also prepared. For analysis, the compound was extracted using protein precipitation extraction procedure. Briefly, a three-fold volume of methanol containing an internal standard was added to the plasma and standard curve solution samples and then incubated at 4° C. for 5 minutes. The plates were centrifuged for 30 minutes at 4° C. at 4000 rpm and the resulting supernatant was transferred to a 96-well propylene plates and sealed with cover to avoid sample evaporation. Ten μL aliquots of extracted samples were injected using a 96-well plate autosampler held at 4° C. onto a ACE C18 50×4.6 mm, 3 um HPLC column held at 30° C. Plasma derived parent compound was eluted using the following conditions: pump flow rate was set at 1 mL/min for a five minutes chromatographic method using a 3 min gradient elution from 20% solvent A (0.1% formic acid in water) and 80% solvent B (0.1% Formic Acid in Methanol) to 10% solvent A and 90% solvent B. The method was followed by 1 min column wash at 95% solvent B and 1 min column re-equilibration back to 80% solvent B. Under these conditions the compound was eluted after 1.8 minutes. For LC-MS-MS compound detection, the curtain gas was set at 10, collision gas was set at 8, ion spray voltage was set at 4500, temperature was set at 500, ion source gas 1 was set at 40 and ion source gas 2 was set at 60. Using a positive ionization mode, the MRM transition monitored was set at […]. Under these conditions, standard curves were linear up to 2000 ng/mL, the lower limit of quantification was generally at 10 ng/mL.
# The area under the curve (AUCtot and AUClast), the maximum plasma concentration (Cmax) and time (Tmax), and terminal half life (T1/2), clearance and volume of distribution were calculated by regression analysis using Kinetica version 5.0 (Thermo Fisher Scientific) using a Non-Compartmental Extravascular/IV Bolus analysis model.
# T1 sequence (Q06187 whole entry): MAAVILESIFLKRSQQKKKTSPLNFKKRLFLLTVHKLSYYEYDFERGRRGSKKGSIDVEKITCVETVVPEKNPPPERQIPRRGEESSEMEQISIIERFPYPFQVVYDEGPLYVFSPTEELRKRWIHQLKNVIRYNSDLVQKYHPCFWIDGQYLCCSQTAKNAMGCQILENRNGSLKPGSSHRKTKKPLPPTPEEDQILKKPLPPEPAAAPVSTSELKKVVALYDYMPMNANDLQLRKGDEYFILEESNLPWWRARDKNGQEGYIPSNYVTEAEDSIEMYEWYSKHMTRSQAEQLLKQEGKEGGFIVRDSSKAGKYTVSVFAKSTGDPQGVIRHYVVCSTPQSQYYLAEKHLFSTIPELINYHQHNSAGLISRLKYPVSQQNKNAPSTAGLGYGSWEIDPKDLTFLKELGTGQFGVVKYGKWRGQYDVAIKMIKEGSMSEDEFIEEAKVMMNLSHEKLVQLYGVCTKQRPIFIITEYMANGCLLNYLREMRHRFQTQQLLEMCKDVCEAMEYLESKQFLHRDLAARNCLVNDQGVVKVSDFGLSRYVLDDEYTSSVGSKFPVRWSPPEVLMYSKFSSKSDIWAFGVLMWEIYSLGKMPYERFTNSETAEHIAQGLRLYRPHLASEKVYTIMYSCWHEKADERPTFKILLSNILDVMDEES
SMILES,IC50 [1],EC50 [2],EC50 [3],GSH Reactivity GSH Conjugate at 60 minutes [4],"AUC ([5]; intravenous 3 mg/kg, free base, read-out: Intravenous AUC)",bioavailability ([5]; oral 10 mg/kg vs intravenous 3 mg/kg),"Cmax ([5]; oral 10 mg/kg, free base)","AUC ([5]; oral 10 mg/kg, free base, read-out: Oral AUC)"
C=CC(=O)N[C@H]1C[C@@H](n2nc(-c3ccc(Oc4ccc(F)cc4F)cc3)c3c(N)ncnc32)C1 [Compound 3],10 nM,0.9 nM,6.5 nM,12.6 % of total Peaks,,,,
CC#CC(=O)N(C)[C@H]1C[C@@H](n2nc(-c3ccc(Oc4ccccc4)cc3)c3c(N)ncnc32)C1 [Compound 4],1 nM,0.8 nM,5.4 nM,8.4 % of total Peaks,,,,
C=CC(=O)N(C)[C@H]1C[C@@H](n2nc(-c3ccc(Oc4ccccc4)cc3)c3c(N)ncnc32)C1 [Compound 5],0.7 nM,0.5 nM,1.9 nM,28.9 % of total Peaks,,,,
C=CC(=O)N[C@H]1C[C@@H](n2nc(-c3ccc(Oc4ccccc4)cc3F)c3c(N)ncnc32)C1 [Compound 6],3 nM,0.4 nM,3 nM,12.6 % of total Peaks,,,,
CC#CC(=O)N[C@H]1C[C@@H](n2nc(-c3ccc(Oc4ccccc4)cc3F)c3c(N)ncnc32)C1 [Compound 7],1 nM,0.4 nM,1.5 nM,5.9 % of total Peaks,,,,
"C=CC(=O)N1CCC[C@@H](n2nc(-c3ccc(Oc4ccccc4)cc3)c3c(N)ncnc32)C1 [Reference, 1-((R)-3-(4-amino-3-(4-phenoxyphenyl)-1H-pyrazolo[3,4-d]pyrimidin-1-yl)piperidin-1-yl)prop-2-en-1-one, reference compound]",,0.4 nM,2 nM,31.7 % of total Peaks,1070 ng·h/mL,9.8%,219 ng/mL,349 ng·h/mL
